From publication PMC10222839, “Development of Novel Small-Molecule Activators of Pyruvate Kinase Muscle Isozyme 2, PKM2, to Reduce Photoreceptor Apoptosis” (Pharmaceuticals, 2023)

Target: T1, pyruvate kinase (PK) activity in rat retina (Rattus norvegicus, UniProt P11980)
T1 construct: the retina from each rat eye was dissected from the RPE-choroid, homogenized, and lysed; from tissue; host or cells: retina of adult Brown-Norway rats
Test: PK activity in rat retina after intravitreal injection
Type: in vivo
Conditions: increasing concentrations, intravitreal injection in rats, retina 4 h
Experimental: The intravitreal injection of medications has revolutionized how numerous retinal diseases are treated and are ever-increasing in ophthalmic clinical practice. Therefore, to assess the ability of these small molecules to activate PK in vivo in the rat retina, we utilized this well-accepted drug delivery method. Two microliters of each respective compound at 850 μM or DMSO were intravitreally injected into rat eyes. The vitreous volume of the rat eye was assumed to be 15 μL, giving a final intravitreal concentration of approximately 100 μM for each compound after injection. Retinas were harvested four hours after injection, lysed, and assayed for PK activity as previously described. The eyes treated with DMSO served as the control upon which PK activation was based.
Two microliters of each respective compound at 8.5 μM (final vitreous concentration of 1 μM) or DMSO was intravitreally injected into rat eyes, and the PK activity was assessed four hours later.
Animals. Intravitreal injections of various small-molecule PKM2 activators or vehicle (DMSO) were performed in Brown-Norway adult rats. The rats were anesthetized with ketamine (90 mg/mL) and xylazine (10 mg/mL) and their pupils dilated with topical phenylephrine (2.5%) and tropicamide (1%) as described previously. A sclerotomy was created with a 25-gauge microvitreoretinal blade (Walcott Rx Products, Ocean View, NJ, USA) just posterior to the limbus. A blunt 35-gauge cannula was inserted through this sclerotomy into the vitreous cavity to deliver 2 μL of different concentrations of small-molecule activator or DMSO. This injection volume produces minimal reflux with adequate reproducibility. Fifteen microliters of vitreous volume was assumed in rats to calculate the intravitreal concentrations of the compound after injection. As we have previously described, left eyes were treated with small-molecular activator, while right eyes were treated with DMSO, which served as the control upon which pyruvate kinase activation was based. Four hours later, the retina from each rat eye was dissected from the RPE-choroid, homogenized, and lysed in RIPA Lysis and Extraction Buffer with protease inhibitors. The pyruvate kinase (PK) activity assay, as described above, was performed using 4 to 8 microliters of rat retinal lysate, similar to what we and others have previously described. Analogous to the cell culture assays, the total protein of the lysate was used to normalize pyruvate kinase activity.

T1 sequence (P11980 1-531 isoform P11980-2): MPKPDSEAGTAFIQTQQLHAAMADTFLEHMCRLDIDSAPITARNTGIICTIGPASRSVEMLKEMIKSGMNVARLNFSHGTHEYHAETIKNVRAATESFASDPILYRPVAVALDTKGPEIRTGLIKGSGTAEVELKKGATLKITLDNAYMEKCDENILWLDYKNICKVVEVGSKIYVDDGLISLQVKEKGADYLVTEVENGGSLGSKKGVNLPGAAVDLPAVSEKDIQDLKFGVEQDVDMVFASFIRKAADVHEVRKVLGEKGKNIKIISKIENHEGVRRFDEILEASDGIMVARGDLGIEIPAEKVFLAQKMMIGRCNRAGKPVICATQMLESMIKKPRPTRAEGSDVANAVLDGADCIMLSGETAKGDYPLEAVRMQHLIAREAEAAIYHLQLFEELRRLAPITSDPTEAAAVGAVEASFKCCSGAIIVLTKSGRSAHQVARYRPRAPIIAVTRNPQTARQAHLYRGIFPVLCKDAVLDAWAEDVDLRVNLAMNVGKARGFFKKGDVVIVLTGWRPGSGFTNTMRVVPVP

SMILES: Cn1c2cc([S+](C)[O-])ccc2c2cnn(Cc3cccc(N)c3)c(=O)c21 (centres unmarked) [Compound 2]
- AC50 (read-out: in vivo AC50): 299 ± 42 nM
- Emax (rat, normalized to DMSO, read-out: in vivo PK activity (maximum activation)): 183 ± 4%
